According to PubChem BioAssay AID179 (DTP/NCI, 2004):
Where “and” joins values, the source holds several entries; their conditions need not be identical. Equal entries are not always repeated. Calls of active or inactive are those of the source.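 How the source made its calls: active means compounds giving half or more protection of infected cells from virus-caused growth loss, again on retest; inactive means the rest.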 Where a SMILES comes first, the peptide text is derived from it. The star is where a group is joined. Fmoc = O=C(OCC1c2ccccc2-c2ccccc21)*; Boc = CC(C)(C)OC(=O)*

Test system: CEM cells HIV-1 protection, formazan growth assay
Assay: NCI AIDS Antiviral Assay
Conditions: for IC50: measured here: growth of uninfected CEM cells
Method in brief: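 Soluble formazan readout of cell growth; CEM cells ± HIV-1; 5 drug concs. ≥50% protection → retest; ≥50% again = moderately active; reproducible 100% = confirmed active.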

SMILES | EC50 [µM] | IC50 | outcome
N=C(N)n1[nH]c2c(c1=O)CCCC2 | > 200 | > 200 µM | –
CCOC(=O)NN(C(=O)OCC)C(C(=O)C1=CCCCC1)N(NC(=O)OCC)C(=O)OCC | > 200 | > 200 µM | –
O=C1c2c(ccc3c2CCC3)CC12Cc1ccccc1C2 | > 200 | > 200 µM | –
O=C(Nc1nc2ncn(CCO)c2c(=O)[nH]1)c1ccccc1 | > 832 | > 832 µM | –
CNC(=O)O/N=C(\C(=N\OC(=O)NC)c1ccccc1)c1ccccc1 | – | – | inactive
NC(=O)c1coc(C2OC(CO)C(O)C2O)n1 (configuration not stated) | > 1020 | > 1020 µM | –
Cc1ccc2c(c1)-c1[nH]c3ccccc3c1CS2 | – | – | inactive
CCOP(=O)(OCC)C(C)(CC)NC1=NC(C(F)(F)F)(C(F)(F)F)NC(=O)N1 (configuration not stated) | > 200 | > 200 µM | –
CCOC(=O)CC(N1CC1)N1CC1 | > 200 | > 200 µM | –
Nc1ccccc1Sc1ccccc1 | > 372 | 77.6 µM | –
O=C1c2ccccc2C(=O)N1CCc1ncc(-c2ccccc2)[nH]1 | > 200 | > 200 µM | –
CC(CCC(=O)O)[C@H]1CCC2[C@@H]3C(=O)C[C@@H]4CC(O)CC[C@]4(C)C3CC[C@@]21C (some centres not stated) | – | – | inactive
O=C1NC(N2CCCC(CO)C2)=N/C1=C\c1ccc(O)cc1 (configuration not stated) | > 200 | 115 µM | –
COC(=O)Cc1ccc2c(cnn2-c2ccccc2)c1OC | > 200 | 89.1 µM | –
O=C1CSC(c2ccc(Cl)cc2)N1N1C(=O)CSC1c1ccc(Cl)cc1 (configuration not stated) | > 151 | > 151 µM | –
C[C@@H](NC(=O)c1ccccc1SC(=O)OCCBr)C(N)=O | 4.57 | > 200 µM | –
N#Cc1c2c(c(Nc3ccc(Cl)cc3)n3c1nc1ccccc13)CCCC2 | > 200 | 11.5 µM | –
O=C1c2ccccc2C(=O)c2c1ccc(O)c2O | > 72.4 | 42.7 µM | –
NS(=O)(=O)c1nnc(NS(=O)(=O)c2cccc3cccnc23)s1 | > 200 | > 200 µM | –
O=C(Nc1ccccc1)N(C1=NCC(CI)S1)c1ccc(F)c(F)c1 (configuration not stated) | > 200 | 18.2 µM | –
NC(=O)CNC(=O)c1ccccc1SC(=O)CCCC[n+]1ccccc1 | 1.74 | 178 µM | –
CC1=C(Br)C(c2ccccc2)=Nc2ccccc2N1 | > 200 | 33.1 µM | –
Cc1ccc(NC(=O)C(=O)C(C#N)c2ccccc2C)cc1C (configuration not stated) | > 23.4 | > 23.4 µM | –

SMILES | EC50 [µM] | IC50 | outcome
CCC(=O)C1=C(OC(C)=O)C2Cc3c(n(C)c4ccccc34)C(C1)N2C (configuration not stated) | – | – | inactive
COc1ccc(NC(=O)/C(=C/n2c(=S)[nH]c3cc(C)ccc32)C(C)=O)cc1 | > 200 | > 200 µM | –
CCCCCCC(CC)(C(=O)O)C(=O)O | > 437 | > 437 µM | –
CCCCCCCC(=O)OCC(C[As](=O)(O)O)OC(=O)CCCCCCC (configuration not stated) | > 200 | 15.1 µM | –
CCCCCC(/C=C/[C@@H]1[C@H]2CC(=O)O[C@H]2C[C@H]1N1CCOCC1)OC1CCCO1 (some centres not stated) | > 316 | > 316 µM | –
CCN(CC)CCCCC1CCN(CC(=O)N2c3ccccc3NC(=O)CC2C)CC1 (configuration not stated) | > 251 | 38.9 µM | –
CCOC(=N)CC(=O)Nc1ccccc1 | > 40.7 | > 40.7 µM | –
OCC(O)CSSCC(O)C(O)CSSCC(O)CO (configuration not stated) | – | – | inactive
CN(/N=C/c1ccc(C(=O)O)cc1)C1=NCCCCN1 | > 200 | > 200 µM | –
CC(NC(=O)C(NC(=O)CNC(=O)OC(C)(C)C)C(C)C)C(=O)Oc1c(Cl)c(Cl)c(Cl)c(Cl)c1Cl (configuration not stated) | > 200 | 29.5 µM | –
COc1ccc2c(O)c(-c3ccc(OC)c(OC)c3)c(=O)oc2c1 | – | – | inactive
CC1=CCN(c2ccccn2)OC1c1ccccc1 (configuration not stated) | > 74.1 | > 74.1 µM | –
CC1=Nc2ccccc2C1C(Cc1ccccc1N)c1c(C)[nH]c2ccccc12 (configuration not stated) | – | – | inactive
COC1/C=C\OC2(C)Oc3c(C)c(O)c4c(O)c(c(/C=N\N(C)C)c(O)c4c3C2=O)NC(=O)/C(C)=C\C=C/C(C)C(O)C(C)C(O)C(C)C(OC(C)=O)C1C (configuration not stated) | > 200 | 12.9 µM | –
CC(C)(C)OC(=O)NCCCCC(NC(=O)C(Cc1c[nH]c2ccccc12)NC(=O)OCC1c2ccccc2-c2ccccc21)C(=O)N1CCCC1C(=O)NCC(N)=O (configuration not stated) (Fmoc-WK(Boc)PG-NH2; configuration not given here) | > 200 | > 200 µM | –
COc1ccc(/C(=C\c2cc(OC)c(OC)cc2[N+](=O)[O-])C(=O)O)cc1 | – | – | inactive
CCOC(=O)NC(NC(=O)OCC)C(NC(=O)OCC)NC(=O)OCC | > 200 | > 200 µM | –
Cc1nc(N)c(N2CCNCC2)c(=O)[nH]1 | > 200 | > 200 µM | –
CSCCCNC(=O)c1csc(-c2csc(CCN)n2)n1 | > 661 | 85.1 µM | –
O=C(O)c1ccc(NC(=O)c2ccccc2[Se][Se]c2ccccc2C(=O)Nc2ccc(C(=O)O)cc2)cc1 | 13.8 | 18.6 µM | –
COc1ccc2[nH]cc(C(=O)C(=O)NC34CC5CC(CC(C5)C3)C4)c2c1 | > 200 | 6.03 µM | –
N#Cc1c(N)c(-c2ccc(Cl)cc2)c(F)c2ccccc12 | 178 | > 200 µM | –
N#Cc1c(-c2ccco2)cc(-c2ccc(N)cc2)[nH]c1=O | > 25.7 | > 25.7 µM | –

SMILES | EC50 [µM] | IC50 | outcome
Nn1c(Sc2nc3ccccc3c(=O)n2N)nc2ccccc2c1=O | > 200 | 3.8 µM | –
O=C(Sc1ccccc1)n1nc(Cl)c2ccc([N+](=O)[O-])cc21 | > 200 | 43.7 µM | –
CC(SC(=S)Nc1cccc(F)c1)C(=O)O (configuration not stated) | – | – | inactive
Cc1nc2c(O)cc(Cl)c(O)c2nc1C | – | – | inactive
C=CC[C@H]1O[Si](C(C)(C)C)(C(C)(C)C)[C@H](C)[C@H]1C | > 200 | > 200 µM | –
CC(C)OP(=O)(OC(C)C)/C(=N/N)NNc1ccc([N+](=O)[O-])cc1 | > 138 | 83.2 µM | –
NCCCSCC(=O)O | – | – | inactive
CC(C)(C)C1=CC(O)(c2c3ccccc3c(C3(O)C=C(C(C)(C)C)C(=O)C(C(C)(C)C)=C3)c3ccccc23)C=C(C(C)(C)C)C1=O | > 100 | > 100 µM | –
O=[N+]([O-])C(=C(N1CCCCC1)N1CCCCC1)/C(Cl)=C(\Cl)Br | > 200 | 1.29 µM | –
CC(=O)OCC1OC(n2ccc(=O)[nH]c2=O)C(OC(C)=O)C(OC(C)=O)C1OC(C)=O (configuration not stated) | > 562 | > 562 µM | –
CC(=O)Nc1nc(NC(C)=O)c(N=O)c(NC(C)=O)n1 | > 200 | 115 µM | –
C=C(C)CS(=O)(=O)O | > 200 | > 200 µM | –
CC(Cc1ccccc1)N(C)Cc1nc(C2CCC([N+](=O)[O-])O2)no1 (configuration not stated) | > 200 | 36.3 µM | –
CC(=O)Nc1ccc(N)c2cc(S(=O)(=O)O)ccc12 | > 200 | > 200 µM | –
N#Cc1c(N)c2c(c(-c3ccccc3)c1-c1ccccc1)C(=O)N(Nc1ccccc1)C2=O | > 200 | 27.5 µM | –
O=C1NC(N2CCCCC2)=N/C1=C\c1ccccc1O | > 200 | 174 µM | –
O=c1[nH]c2nc3ccccc3c(=O)n2/c1=C/c1ccccc1 | > 200 | 9.12 µM | –
COC(=O)C1(C)CCCC2(C)C1CCC13OCC(CC21)C1(C(C)C)OC31 (configuration not stated) | – | – | inactive
O=c1ccn(COC(COCc2ccccc2)COCc2ccccc2)c(=O)[nH]1 | – | – | inactive
Nc1ccc2c(c1)C(N)c1ccccc1-2 (configuration not stated) | > 200 | 55 µM | –
CC12c3ccccc3C(c3ccccc31)C1C(=O)OC(=O)C12 (configuration not stated) | > 135 | 21.4 µM | –
NC(=S)Nc1nnc(-c2ccc(-c3nnc(NC(N)=S)o3)cc2)o1 | – | – | inactive
CN(/N=C/c1ccccc1C(=O)O)C1=NCCCCN1 | > 200 | > 200 µM | –

SMILES | EC50 [µM] | IC50 | outcome
COc1ccc(-c2oc3c(OC)c(OC)cc(O)c3c(=O)c2OC)cc1 | > 200 | > 200 µM | –
CN(C)CCNC(=O)c1cccc2c(Nc3ccc(S(=O)(=O)N=C(N)N)cc3)c3ccccc3nc12 | – | – | inactive
CCOC(=O)C1(C)CCC(C(C(=O)O)C(=O)O)CC1=O (configuration not stated) | – | – | inactive
O=C1CC2CCC(C1)S2=O (configuration not stated) | > 200 | > 200 µM | –
O=C1C[N+]2(Cc3ccccc3)CCC1CC2 | > 851 | > 851 µM | –
N#C/C=C(/NC(=O)Nc1ccccc1)N1CCCC1 | > 200 | > 200 µM | –
O=C1NC(=O)C2C(=O)NC(=O)C1C2Cc1ccco1 (configuration not stated) | > 955 | > 955 µM | –
CC(=O)NC(C)(C)C1CC=C(C)CC1 (configuration not stated) | > 200 | > 200 µM | –
COC(=O)C(C(=O)C(=O)Nc1cccc([N+](=O)[O-])c1)c1nc2ccc([N+](=O)[O-])cc2[nH]c1=O (configuration not stated) | > 550 | 309 µM | –
COC1=CC(=O)[C@H]2[C@H](C)C(c3ccccc3)[C@@]2(C)C1=O (some centres not stated) | > 933 | 603 µM | –
NC(=O)CN(CC(N)=O)C(N)=O | > 724 | > 724 µM | –
Cc1cc(C)nc(NS(=O)(=O)c2ccc(Nc3c4ccc(Cl)cc4nc4ncccc34)cc2)n1 | – | – | inactive
COc1ccc(-c2nc(SC)n(C3OC(COC(C)=O)C(OC(C)=O)C(OC(C)=O)C3OC(C)=O)c(=O)c2C#N)cc1 (configuration not stated) | > 200 | 41.7 µM and 46.8 µM | –
C#CCOC(=O)c1ccccc1OC(C)=O | > 200 | > 200 µM | –
Cc1ccccc1SSCCN | – | – | inactive
O=C1Nc2ccccc2NC(=O)C1(O)O | > 200 | > 200 µM | –
Cc1nc2ccc(Br)cc2c(=O)n1-c1nnc(C(C)(C)C)s1 | > 200 | > 200 µM | –
C=C(C)[C@H]1C2=CC(C(=O)OC)=C(C[C@H](C(=C)C)[C@@H](O)[C@@H](O)C3=C[C@H]1OC3=O)O2 | > 200 | 93.3 µM | –
C=CCCC1(O)C(O)C(CO)O[C@H](O[C@@]2(CO)OC(CO)C(O)C2O)C1O (some centres not stated) | – | – | inactive
O=[N+]([O-])c1ccc(Oc2ccc(S(=O)(=O)c3ccc(Oc4ccc([N+](=O)[O-])cc4)c([N+](=O)[O-])c3)cc2[N+](=O)[O-])cc1 | > 200 | > 200 µM | –
Cc1ccc(NC(=S)SCCC(=O)O)cc1 | – | – | inactive
O=c1[nH]c(/C=C(\O)c2ccncc2)nc2ccccc12 | > 2.82 | > 2.82 µM | –
